Measurements from ChEMBL document CHEMBL3390836, “Mannich- and LedererManasse-based analogues of the natural product S-(+)-curcuphenol as cancer proliferation and migration inhibitors” (Medchemcomm, 2012).

How the values were obtained:
Type in all cases: functional
[1] = tested on: HCC 2998; test: Cytotoxicity against human HCC2998 cells assessed as cell growth at 10^-4 M after 48 hrs by SRB assay relative to control; conditions: HCC 2998, 48 h, read-out: Activity
[2] = tested on: A498; test: Cytotoxicity against human A498 cells after 48 hrs by SRB assay; conditions: A498, 48 h
[3] = tested on: A549; test: Cytotoxicity against human A549 cells assessed as cell growth at 10^-8 M after 48 hrs by SRB assay relative to control; conditions: A549, 48 h, read-out: Activity
[4] = tested on: NCI-H322M; test: Cytotoxicity against human NCI-H322M cells assessed as cell growth at 10^-8 M after 48 hrs by SRB assay relative to control; conditions: read-out: Activity
[5] = tested on: HCC 2998; test: Cytotoxicity against human HCC2998 cells assessed as cell growth at 10^-8 M after 48 hrs by SRB assay relative to control; conditions: HCC 2998, 48 h, read-out: Activity
[6] = Cytotoxicity against human HCT116 cells assessed as cell growth at 10^-8 M after 48 hrs by SRB assay relative to control; conditions: HCT-116, 48 h, read-out: Activity
[7] = tested on: IGROV-1; test: Cytotoxicity against human IGROV1 cells assessed as cell growth at 10^-4 M after 48 hrs by SRB assay relative to control; conditions: IGROV-1, 48 h, read-out: Activity
[8] = Cytotoxicity against human OVCAR5 cells assessed as cell growth at 10^-4 M after 48 hrs by SRB assay relative to control; conditions: OVCAR-5, 48 h, read-out: Activity
[9] = tested on: A498; test: Cytotoxicity against human A498 cells assessed as cell growth at 10^-4 M after 48 hrs by SRB assay relative to control; conditions: A498, 48 h, read-out: Activity
[10] = Cytotoxicity against human UACC62 cells assessed as cell growth at 10^-8 M after 48 hrs by SRB assay relative to control; conditions: UACC-62, 48 h, read-out: Activity
[11] = Cytotoxicity against human OVCAR3 cells assessed as cell growth at 10^-8 M after 48 hrs by SRB assay relative to control; conditions: OVCAR-3, 48 h, read-out: Activity
[12] = tested on: TK-10; test: Cytotoxicity against human TK10 cells assessed as cell growth at 10^-8 M after 48 hrs by SRB assay relative to control; conditions: TK-10, 48 h, read-out: Activity
[13] = tested on: MOLT-4; test: Cytotoxicity against human MOLT4 cells assessed as cell growth at 10^-7 M after 48 hrs by SRB assay relative to control; conditions: MOLT-4, 48 h, read-out: Activity
[14] = tested on: HOP-62; test: Cytotoxicity against human HOP62 cells assessed as cell growth at 10^-7 M after 48 hrs by SRB assay relative to control; conditions: HOP-62, 48 h, read-out: Activity
[15] = tested on: NCI-H226; test: Cytotoxicity against human NCI-H226 cells assessed as cell growth at 10^-7 M after 48 hrs by SRB assay relative to control; conditions: NCI-H226, 48 h, read-out: Activity
[16] = tested on: NCI-H23; test: Cytotoxicity against human NCI-H23 cells assessed as cell growth at 10^-7 M after 48 hrs by SRB assay relative to control; conditions: NCI-H23, 48 h, read-out: Activity
[17] = Cytotoxicity against human HCT15 cells assessed as cell growth at 10^-7 M after 48 hrs by SRB assay relative to control; conditions: HCT-15, 48 h, read-out: Activity
[18] = tested on: LOX IMVI; test: Cytotoxicity against human LOXIMVI cells assessed as cell growth at 10^-7 M after 48 hrs by SRB assay relative to control; conditions: read-out: Activity
[19] = tested on: HL-60(TB); test: Cytotoxicity against human HL-60(TB) cells after 48 hrs by SRB assay; conditions: HL-60, 48 h
[20] = tested on: MOLT-4; test: Cytotoxicity against human MOLT4 cells after 48 hrs by SRB assay; conditions: MOLT-4, 48 h
[21] = tested on: SNB-19; test: Cytotoxicity against human SNB19 cells after 48 hrs by SRB assay; conditions: SNB-19, 48 h
[22] = tested on: SK-MEL-5; test: Cytotoxicity against human SK-MEL-5 cells assessed as cell growth at 10^-7 M after 48 hrs by SRB assay relative to control; conditions: SK-MEL-5, 48 h, read-out: Activity
[23] = Cytotoxicity against human UACC62 cells assessed as cell growth at 10^-7 M after 48 hrs by SRB assay relative to control; conditions: UACC-62, 48 h, read-out: Activity
[24] = Cytotoxicity against human OVCAR8 cells assessed as cell growth at 10^-7 M after 48 hrs by SRB assay relative to control; conditions: OVCAR-8, 48 h, read-out: Activity
[25] = tested on: TK-10; test: Cytotoxicity against human TK10 cells assessed as cell growth at 10^-7 M after 48 hrs by SRB assay relative to control; conditions: TK-10, 48 h, read-out: Activity
[26] = tested on: BT-549; test: Cytotoxicity against human BT549 cells assessed as cell growth at 10^-7 M after 48 hrs by SRB assay relative to control; conditions: BT-549, 48 h, read-out: Activity
[27] = tested on: MOLT-4; test: Cytotoxicity against human MOLT4 cells assessed as cell growth at 10^-6 M after 48 hrs by SRB assay relative to control; conditions: MOLT-4, 48 h, read-out: Activity
[28] = tested on: NCI-H226; test: Cytotoxicity against human NCI-H226 cells assessed as cell growth at 10^-6 M after 48 hrs by SRB assay relative to control; conditions: NCI-H226, 48 h, read-out: Activity
[29] = tested on: NCI-H460; test: Cytotoxicity against human NCI-H460 cells assessed as cell growth at 10^-6 M after 48 hrs by SRB assay relative to control; conditions: NCI-H460, 48 h, read-out: Activity
[30] = Cytotoxicity against human HCT15 cells assessed as cell growth at 10^-6 M after 48 hrs by SRB assay relative to control; conditions: HCT-15, 48 h, read-out: Activity
[31] = tested on: HT-29; test: Cytotoxicity against human HT-29 cells assessed as cell growth at 10^-6 M after 48 hrs by SRB assay relative to control; conditions: HT-29, 48 h, read-out: Activity
[32] = tested on: MDA-MB-435; test: Cytotoxicity against human MDA-MB-435 cells assessed as cell growth at 10^-6 M after 48 hrs by SRB assay relative to control; conditions: MDA-MB-435, 48 h, read-out: Activity
[33] = tested on: SK-MEL-5; test: Cytotoxicity against human SK-MEL-5 cells assessed as cell growth at 10^-6 M after 48 hrs by SRB assay relative to control; conditions: SK-MEL-5, 48 h, read-out: Activity
[34] = Cytotoxicity against human OVCAR3 cells assessed as cell growth at 10^-6 M after 48 hrs by SRB assay relative to control; conditions: OVCAR-3, 48 h, read-out: Activity
[35] = tested on: ACHN; test: Cytotoxicity against human ACHN cells assessed as cell growth at 10^-6 M after 48 hrs by SRB assay relative to control; conditions: read-out: Activity
[36] = tested on: TK-10; test: Cytotoxicity against human TK10 cells assessed as cell growth at 10^-6 M after 48 hrs by SRB assay relative to control; conditions: TK-10, 48 h, read-out: Activity
[37] = tested on: MDA-MB-231; test: Cytotoxicity against human MDA-MB-231 cells assessed as cell growth at 10^-6 M after 48 hrs by SRB assay relative to control; conditions: MDA-MB-231, 48 h, read-out: Activity
[38] = read-out: LC50 (the source's name)

Structure (SMILES): CC(C)=CCC[C@H](C)c1ccc(C)c2c1OCN(CC1CCNCC1)C2
- growth at 100 µM [1]: -94%
- GI50 [2]: 12.3 µM
- TGI [2]: 26 µM
- CC50 [2, 38]: 55 µM
- growth at 0.01 µM [3]: 95%
- growth at 0.01 µM [4]: 98%
- growth at 0.01 µM [5]: 111%
- growth at 0.01 µM [6]: 100%
- growth at 100 µM [7]: -86%
- growth at 100 µM [8]: -90%
- growth at 100 µM [9]: -90%
- growth at 0.01 µM [10]: 95%
- growth at 0.01 µM [11]: 99%
- growth at 0.01 µM [12]: 118%
- growth at 0.1 µM [13]: 104%
- growth at 0.1 µM [14]: 94%
- growth at 0.1 µM [15]: 98%
- growth at 0.1 µM [16]: 94%
- growth at 0.1 µM [17]: 91%
- growth at 0.1 µM [18]: 92%
- GI50 [19]: 3.9 µM
- TGI [19]: 18.9 µM
- CC50 [19, 38]: 59.3 µM
- GI50 [20]: 14.6 µM
- LC50 [20]: > 100 µM
- TGI [20]: 43.3 µM
- GI50 [21]: 14 µM
- TGI [21]: 29.4 µM
- CC50 [21, 38]: 61.8 µM
- growth at 0.1 µM [22]: 88%
- growth at 0.1 µM [23]: 96%
- growth at 0.1 µM [24]: 101%
- growth at 0.1 µM [25]: 113%
- growth at 0.1 µM [26]: 87%
- growth at 1 µM [27]: 100%
- growth at 1 µM [28]: 101%
- growth at 1 µM [29]: 113%
- growth at 1 µM [30]: 95%
- growth at 1 µM [31]: 103%
- growth at 1 µM [32]: 96%
- growth at 1 µM [33]: 96%
- growth at 1 µM [34]: 105%
- growth at 1 µM [35]: 106%
- growth at 1 µM [36]: 118%
- growth at 1 µM [37]: 99%
